In data set [1] the test system is human c-peptide in serum of SCID-Beige mice. The data set is described as follows: Kidney capsule transplantation of treated cells, glucose-stimulated human c-peptide ELISA. Particulars: treated cells under kidney capsule of SCID-beige mice, 12 weeks, 30 mins after glucose. Type of data set: in vivo. The source says: FIGS. 2A-2B show the characterization of cells derived by PKC inhibitor treatment. […] Cells were stained with insulin, c-peptide, glucagon, UCN3, PDX1 and NKX6-1 antibodies. All insulin-expressing cells express c-peptide. Few insulin-expressing cells express NKX6-1 or UCN3, markers of mature human β cells. Many insulin-expressing cells co-express another endocrine marker glucagon. Scale bars are 100 μm. […] Scheme beginning with cells that have been treated with hit chemicals, e.g., PKC inhibitors, comprises a population containing many NGN3-expressing cells. The HUES 8-derived pancreatic progenitor cells treated with DMSO were used as negative controls. […] 12 weeks later, the mouse sera collected at fasting condition and at 30 mins after glucose stimulation were analyzed using ELISA to measure human c-peptide expression. […]
Kidney capsule implantation and tissue preparation. […] The c-peptide levels in mouse sera were measured using the human c-peptide ELISA kit (Alpco Diagnostics or Millipore).
The inventors next investigated the developmental potential of cell populations enriched for NGN3^+ cells that were induced by PKC inhibition. […] More c-peptide (a byproduct of insulin biosynthesis)-expressing cells were detected in the derivatives of PKCβ inhibitor treated cells (12.5 5.8%) than the derivatives of control cells (DMSO-treated, 1.2 1.2%; FIG. 2b). […]
(In general: An ELISA detects its analyte on a solid surface through an enzyme-linked reagent.)

Data set [2] relates to NGN3 mRNA (HUES 8-derived pancreatic progenitor cells). The data set is described as follows: qRT-PCR of NGN3 expression in chemically-treated populations. Type of data set: cell-based, human. Particulars: quantitative RT-PCR, HUES 8-derived cells. From the text: [drawing 11] was selected for follow up studies due to the high efficacy and low toxicity (FIG. 1C).
A general note: Quantitative PCR measures a nucleic acid by following its amplification.

Data set [3] deals with Human NGN3 (HUES 8-pancreatic progenitor population). The data set is described as follows: High-content screen 1 and efficacy curve: NGN3+ cells by immunofluorescence (Cellomics). The data set is classed as cell-based. As to the method: hESC culture and differentiation. Protocol 1. HUES 8 and H1 cells are routinely cultured on irradiated MEF feeder cells in KnockOut DMEM (Invitrogen) supplemented with 10% (v/v) KnockOut serum replacement (Invitrogen), 0.5% (v/v) human plasma fraction (Talecris Biotech), 2 mM L-glutamine (Invitrogen), 1.1 mM 2-mercaptoethanol (Invitrogen), 1 mM nonessential amino acids (Invitrogen), 1× penicillin/streptomycin (PS, Invitrogen) and 10 ng/ml bovine FGF (Invitrogen). Cells are passaged at the ratio of 1:6 every 5 d by using 0.05% trypsin (Invitrogen). To generate the HUES-pancreatic progenitor population, HUES cells were cultured on MEF feeder cells until 80-90% confluent, then treated with 25 ng/ml Wnt3a (R&D systems)+100 ng/ml activin A (R&D systems) in RPMI (Invitrogen) supplemented with 1×L-glutamine and 1×PS for 1 d, and then 100 ng/ml activin A in RPMI supplemented with 1×L-glutamine, 1×PS and 0.2% (v/v) fetal bovine serum (FBS, Invitrogen). The medium was changed 2 d later to 50 ng/ml/FGF7 (R&D systems) in RPMI supplemented with 1×L-glutamine, 1×PS and 2% (v/v) FBS, and maintained for an additional 2 d. Cells were then transferred to 100 ng/ml Noggin (R&D systems)+0.25 μM SANT-1 (Sigma)+2 μM retinoic acid (Sigma) in DMEM supplemented with 1×L-glutamine, 1×PS and 1×B27 (Invitrogen) and cultured for an 4 d, followed by treatment with 100 ng/ml Noggin (R&D systems)+1 μM ALK5 inhibitor (Enzo)+100 nM PDBu (Sigma) in DMEM supplemented with 1×L-glutamine, 1×PS and 1×B27 (Invitrogen) and cultured for an additional 4 d. All HUES-pancreatic progenitor cells were derived using the same protocol as described above. The percentage and number of PDX1^+ cells and NGN3^+ cells were analyzed with the Cellomics high content screening system (Thermo Scientific). PKCβ inhibitor was purchased from Calbiochem.
High-content screen 1. […]
Screen 1: Generation of efficacy curve. […] Six days later, the cells were stained with NGN3 antibody and the plates were analyzed with the Cellomics high content screening system (Thermo Scientific). […]

Another data set has as its system pancreatic progenitors. Particulars: previously reported, US2011/0070645; cited from earlier work.

A word on the EC50: it is the concentration giving half of the maximal effect.

As to `O=C1NC(=O)C(c2cn(CCCn3ccnc3)c3ccccc23)=C1Nc1ccccc1` [PKCβ inhibitor], the “human c-peptide levels in the serum, glucose injection versus fasting” value in data set [1] is “significantly higher upon glucose injection than during fasting”. Besides, in data set [2], the “expression of NGN3 mRNA compared to DMSO controls” value is on record as “higher expression of NGN3 mRNA”. For the same compound, the “percentage of NGN3+ cells, fold higher than the DMSO-treated controls” value in data set [3] (HUES 8, at maximum) is listed as roughly 7 fold. Besides, in data set [3] (Homo sapiens, 144 h, HUES 8-pancreatic progenitor population, six days, FIG. 1D, read-out: EC50, total number of NGN3+ cells), the EC50 was 7.8 µM. In data set [3] (reason for selection for follow up), the “toxicity in screen 1” value is “low toxicity”.
Turning to (−)-Indolactam V, in the data set on pancreatic progenitors, the “generation of pancreatic progenitors” value is “promotes the generation of pancreatic progenitors”.

Source of the values: US10941384B2, “Compositions and methods for promoting the generation of endocrine cells” (President and Fellows of Harvard College, priority 2013, dated 2021).
